Values after ≈ are worked out from the molar mass of the structure shown. Blank lines part the entries; values can stand above or below the compound they belong to.
Experiments:
Daphnia magna = Daphnia magna immobilisation ecotoxicity test; format: in vivo
Procedure: The following ecotoxicity results were obtained for various alkyl amine alkoxylates using the following test method. First instar Daphnia magna (less than 24 hrs old), obtained from cultures were exposed to a range of concentrations of the test amine ethoxylates in hard blended water (160-180 mg CaCO3 /litre). 10 Daphnia magna were added to each vessel which were then placed at ∼20 degrees C on a 16/8 light/dark day. Organisms were assessed at 24 and 48 hours, the effect observed being immobilisation after gentle agitation. The EC50 values were calculated using a statistical package, the 95% confidence limits are quoted in brackets.
The amine ethoxylates were tested in the presence of potassium glyphosate in order to protonate the amine. […] The remaining adjuvants were tested in the absence of potassium glyphosate. It can be seen that the ecotoxicity of the alkyl amine alkoxylates 3 to 6 falling within the definition of the present invention was very much lower that that for the nearest previously known compounds 1 to 2. It will be appreciated that the higher the EC50 value, the lower the toxicity.

[1] = tested on: Echinochloa crus-galli (ECHCG); experiment: Glass-house comparative efficacy test of potassium glyphosate with adjuvants; format: in vivo; conditions: potassium glyphosate 240 g acid equivalent/ha, 21 days after treatment
Procedure: (§1) Potassium glyphosate was applied at 240 g glyphosate acid equivalent/ha to Chenopodium album (CHEAL), Echinochloa crus-galli (ECHCG) and Sorgham halepense (SORHA) plants grown in the glass-house. All treatments were made up in deionised water and applied using a tracksprayer with a 11002 nozzle at a spray application volume of […]. All treatments were replicated 4 times. After spraying the plants were laid out in a glass-house and maintained at a temperature of 24°C by day and 16°C by night. The Agrimul PG2067 and Synperonic PEL62 adjuvants were used in a proportion 0.2% w/v. The adjuvant 2-ethylhexyl amine 8EO was used at both 0.2%w/v and 0.3%w/v. The adjuvant Sodium dodecyl sulphate was used in a proportion of 0.3%w/v. When applied as binary blends all adjuvants were used in a proportion of 0.1%w/v except Sodium dodecyl sulphate which was applied at 0.2%w/v. A visual assessment of % control, where 0=unaffected and 100=complete kill, was carried out 21 days after treatment.

[2] = tested on: Sorgham halepense (SORHA); experiment: as above; format: in vivo; conditions: potassium glyphosate 240 g acid equivalent/ha, 21 days after treatment
Procedure: as §1

[3] = Dynamic surface tension, maximum bubble pressure method (Lauda MPT-2); format: physicochemical
Procedure: Dynamic surface tension can be measured using the maximum bubble pressure method. Various commercial instruments are available for measuring dynamic surface tension by the maximum bubble pressure method, for example the Lauda MPT-2 maximum bubble pressure instrument. The dynamic surface tension at 40msecs is determined from the maximum pressure in a bubble blown from a capillary inserted into a surfactant solution, for a bubble surface lifetime of 40msecs.
The dynamic surface tension measurements were carried out with a Lauda MPT-2 maximum bubble pressure tensiometer. The dynamic surface tension at 40 msecs was determined from the maximum pressure in a bubble blown from a capillary inserted into a surfactant solution, for a bubble surface lifetime of 40 msecs. The dynamic surface tensions were determined for solutions containing 0.1%, 0.2% or 0.5% by weight of the second adjuvant in deionised water at 20°C. For comparison, the dynamic surface tension of a 0.5% by weight solution of 2-ethylhexyl amine 8EO adjusted to pH4 with dilute hydrochloric acid (to protonate the amine) was also determined at 20°C.

[4] = tested on: Chenopodium album (CHEAL); experiment: Glass-house comparative efficacy test of potassium glyphosate with adjuvants; format: in vivo; conditions: potassium glyphosate 240 g acid equivalent/ha, 21 days after treatment
Procedure: as §1

Lolium perenne (LOLPE) = experiment: Field efficacy test of potassium glyphosate with adjuvants; format: in vivo; conditions: potassium glyphosate + 0.2% adjuvant, mean across 100, 200, 400 and 600 g glyphosate acid/ha, 33 days after application
From the text: (§2) Potassium glyphosate, in combination with the adjuvants specified below in Table 3, was applied to Lolium perenne (LOLPE), Avena fatua (AVEFA) and Chenopodium album (CHEAL) drilled as rows in the field, at a spray application volume of […]. Application rates were 100, 200, 400 and 600 g glyphosate acid/ha and each treatment was replicated 3 times. Data (mean of the three replicates and across all rates) is presented for a visual assessment of % control carried out 33 days after application, where 0 = unaffected and 100% = complete kill Table 3.

[5] = tested on: Chenopodium album (CHEAL); experiment: as above; format: in vivo; conditions: potassium glyphosate + 0.2% adjuvant, mean across 100, 200, 400 and 600 g glyphosate acid/ha, 33 days after application
From the text: as §2

Avena fatua (AVEFA) = experiment: as above; format: in vivo; conditions: potassium glyphosate + 0.2% adjuvant, mean across 100, 200, 400 and 600 g glyphosate acid/ha, 33 days after application
From the text: as §2

Compound: CCCCCCCCCCCCOS(=O)(=O)O [Number 9]
EC50 (Daphnia magna; Daphnia magna, 48 hours, immobilisation, tested in the absence of potassium glyphosate, 95% confidence limits in brackets, read-out: Daphnia toxicity EC50): 16 µg/mL (≈ 60.1 µM)

Dynamic Surface Tension at 40 msecs ([3]; 0.2% by weight in deionised water at 20°C): 53 mNm^-1 | Dynamic Surface Tension at 40 msecs ([3]; 0.5% by weight in deionised water at 20°C): 39 mNm^-1
Compound: CCCCCCCCCCCCOS(=O)(=O)[O-].[Na+] [Number 9, Sodium dodecyl sulphate, reference compound]
visual assessment of % control ECHCG ([1]; single adjuvant 0.3%): 78% | visual assessment of % control SORHA ([2]; single adjuvant 0.3%): 76%

Dynamic Surface Tension at 40 msecs ([3]; 0.5% by weight solution adjusted to pH4 with dilute hydrochloric acid, 20°C): 64 mNm^-1
Compound: 2-ethylhexyl amine 8EO [Number 3]
visual assessment of % control CHEAL ([4]; single adjuvant 0.2%): 59% | visual assessment of % control ECHCG ([1]; single adjuvant 0.2%): 63% | visual assessment of % control ECHCG ([1]; single adjuvant 0.3%): 64% | visual assessment of % control SORHA ([2]; single adjuvant 0.2%): 74% | visual assessment of % control SORHA ([2]; single adjuvant 0.3%): 75% | visual assessment of % control LOLPE (Lolium perenne (LOLPE)): 47% | visual assessment of % control CHEAL [5]: 74% | visual assessment of % control AVEFA (Avena fatua (AVEFA)): 68%

Compound: O=C(O)CNCP(=O)([O-])O.[K+] [Potassium glyphosate, reference compound]
visual assessment of % control CHEAL ([4]; no adjuvant): 3% | visual assessment of % control ECHCG ([1]; no adjuvant): 48% | visual assessment of % control SORHA ([2]; no adjuvant): 21% | contribution to the daphnia toxicity (Daphnia magna; potassium glyphosate itself): does not make a significant contribution

From patent EP1326493B1, “AGROCHEMICAL COMPOSITION CONTAINING ACTIVITY-ENHANCING ADJUVANTS” (Syngenta Limited, priority 2000, dated 2002)
